This is an account of results in patent US20230381139A1, “METHODS OF TREATING AND/OR PREVENTING ALZHEIMER’S DISEASE WITH R-CARVEDILOL” (priority 2020, published 2023).

Assay [1] deals with RyR2-mediated Ca2+ release. Kind of assay: Ex vivo two-photon Ca2+ imaging of caffeine-induced Ca2+ release in CA1 neurons of brain slices from treated 5×FAD+/− mice. Conditions: CA1 pyramidal neurons in brain slices of 4-5 months old 5×FAD+/− mice treated for 1 month; caffeine 40 mM; vs DMSO-treated. More on the design: species or system mouse.
Assay [2] has as its system 5×FAD+/− hippocampal CA1 neurons. Description: In vivo two-photon Ca2+ imaging of CA1 neurons (neuronal hyperactivity) in 5×FAD+/− mice. Also on record: species or system mouse. As to the method: Adult genetically engineered mice, 5×FAD^+/− (Oakley et al., 2006), RyR2-E4872Q^+/− (EQ^+/−) (Chen et al., 2014), 5×FAD^+/−/RyR2-E4872Q^+/− (5×FAD^+/−/EQ^+/−), and wildtype (WT) littermates of both sexes were used. R-carvedilol (R-CV) (at doses of 0.8, 1.6 or 3.2 mg/kg/day), racemic carvedilol (3.2 mg/kg/day), and vehicle control (DMSO) were delivered to 5×FAD^+/− mice in drinking water for one month, starting at different ages before (2-3 months old) or after (3-4 months old) the occurrence of AD pathologies (Oakley et al., 2006). To assess the effects of genetically and pharmacologically limiting RyR2 open time on the prevention and rescue of AD deficits in different stages (early, moderate, and late) of AD progression, animals at different ages (from 2-15 months) were used. As reported (Oakley et al., 2006), there was an age-dependence of AD progression in the 5×FAD^+/− mice. No sex-dependent differences in AD progression in these mice was observed. For 2-photon Ca^2+ imaging experiments, 5×FAD, RyR2 WT, and RyR2 mutant mice were cross-bred with the heterozygous Thy1-GCaMP6f transgenic mice (Chen et al., 2012; Chen et al., 2013) (GP5.17, JAX 025393) to express the GCaMP6f Ca^2+ sensing probe (driven by the Thy1 promotor) in hippocampal neurons in each of the genotypes used.
To determine whether limiting RyR2 open time can suppress AD-associated neuronal hyperactivity in vivo, double heterozygous 5×FAD^+/−/E4872Q^+/− mice were crossed with the heterozygous Thy-1 GCaMP6f^+/− transgenic mice (GP5.17, JAX 025393) to introduce the GCaMP6f^+/− transgene into each of the four genotypes (driven by the Thy1 promotor). In vivo two-photon imaging of GCaMP6f-expressing CA1 pyramidal neurons in each of the four genotypes to monitor spontaneous Ca^2+ transients was performed.
Neuronal hyperactivity has been reported in anesthetized AD model mice in vivo using two-photon Ca^2 + imaging (Busche et al., 2008; Busche et al., 2012; Lerdkrai et al., 2018; Busche et al., 2019). To facilitate comparison, the same approach described originally by Busche et al. and used by others in the field (Busche et al., 2012; Busche et al., 2008; Delekate et al., 2014; Eichhoff and Garaschuk, 2011; Kim et al., 2016; Takano et al., 2007; Zott et al., 2019) was employed. Craniotomy was performed according to the protocol reported previously (Busche, 2018; Busche et al., 2012; Busche et al., 2008) with some modifications. […] The body temperature was monitored and controlled at 36.5-37.5° C. during the entire surgery and imaging procedure. […] Besides the core body temperature, the respiratory and pulse rate were continuously monitored (MouseOx plus. STARR Life Science Corp.). […]

Where [3] appears, read: 3.2 mg/kg/day for one month, started at 2-3 or 3-4 months of age (both ages), vs vehicle pre-treated 5×FAD+/− mice.

In the case of `COc1ccccc1OCCNC[C@@H](O)COc1cccc2[nH]c3ccccc3c12` [R-carvedilol, R-(+)-carvedilol], the “Caffeine-induced Ca2+ release” value in assay [1] is listed as “markedly reduced”. In assay [2] (setting [3]), the “fraction of hyperactive neurons” value was “significantly lower”, the “mean frequency of spontaneous Ca2+ transients” value was “significantly lower” and the “overall spontaneous neuronal activity (cumulative probability analysis)” value was “significantly lower”. Besides, the “neuronal hyperactivity of 5×FAD+/− hippocampal CA1 neurons in vivo” value in assay [2] (3.2 mg/kg/day in drinking water for one month, started at 2-3 months (before AD pathology) or 3-4 months (after) of age, vs DMSO vehicle) was “prevented and rescued”.
